In one experiment the target is T1, human GPR39 receptor (Homo sapiens, UniProt O43194).
T1 construct: PC3 Cells, Expressing the Endogenous Human GPR39 Receptor; endogenous in cells; host or cells: PC3 (human prostate adenocarcinoma) cells
T1 sequence (O43194 1-453): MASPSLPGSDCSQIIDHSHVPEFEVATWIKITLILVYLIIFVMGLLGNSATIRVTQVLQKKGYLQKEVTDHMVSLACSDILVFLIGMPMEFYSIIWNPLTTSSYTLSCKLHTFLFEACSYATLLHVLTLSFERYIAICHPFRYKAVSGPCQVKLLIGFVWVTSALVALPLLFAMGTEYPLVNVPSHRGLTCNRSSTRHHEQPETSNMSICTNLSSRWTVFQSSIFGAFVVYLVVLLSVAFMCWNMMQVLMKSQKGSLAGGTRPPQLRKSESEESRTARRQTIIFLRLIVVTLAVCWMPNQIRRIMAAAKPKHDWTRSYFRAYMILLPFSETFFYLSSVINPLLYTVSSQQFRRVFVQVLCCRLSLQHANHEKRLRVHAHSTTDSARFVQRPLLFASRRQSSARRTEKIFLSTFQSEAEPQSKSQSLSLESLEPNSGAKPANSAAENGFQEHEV
The experiment can be described thus: Measurement of intracellular calcium response in PC3 cells (FLIPR), antagonism of the C3 agonist response. Conditions: PC-3, hGPR39 receptor agonist, calcium response, read-out: EC90 (concentration producing 90% of the maximal response). Format: cell-based. An outline of the steps: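 Potency was reported as fpKi, converted by modified Cheng-Prusoff from four-parameter IC50 fits against an EC90 C3 agonist challenge. Calcium-6 FLIPR readings used PC3 cells naturally expressing human GPR39, in pH 7.4 HEPES buffer containing 30 μM final ZnCl2. Score bands: +/± <5.2, + 5.2–5.9, ++ 6.0–6.5, +++ 6.6–7.2, ++++ ≥7.3.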
For orientation: Calcium flux is commonly read through the fluorescence of an indicator in the cells.
As to `CNc1nc(NCc2ccc(NS(C)(=O)=O)cc2Cl)cc(-c2ccccn2)n1` [Example C3, reference compound], the EC90 is 1500 nM.

Still in this experiment, the particulars now being: functional pKi (modified Cheng-Prusoff), inhibition of the C3 (TC-G 1008) response at EC90, 30 μM ZnCl2, read-out: fpKi activity.
As to `O=C(Nc1ccc(C(=O)N2CCS(=O)(=O)CC2)c(N2CCC(F)(F)C2)c1)C1CC1` [Example 184, N-[3-(3,3-difluoropyrrolidin-1-yl)-4-(1,1-dioxo-1,4-thiazinane-4-carbonyl)phenyl]cyclopropanecarboxamide], the Ki is 63.1 to 251 nM. With `CCCN1CCN(C(=O)c2ccc(NC(=O)C3CC3)cc2N2CCCC2)CC1` [Example 16, N-[4-(4-propylpiperazine-1-carbonyl)-3-(pyrrolidin-1-yl)phenyl] Cyclopropanecarboxamide], the Ki was 63.1 to 251 nM. Same read-out and setting: as for `O=C(Nc1ccc(C(=O)N2CCS(=O)(=O)CC2)c(-n2ccc(C3CC3)n2)c1)C1CC1` [Example 180, N-[3-(3-cyclopropylpyrazol-1-yl)-4-(1,1-dioxo-1,4-thiazinane-4-carbonyl)phenyl]cyclopropanecarboxamide], the figure is at most 50.1 nM. Same read-out and setting: in the case of `Cn1c(-c2ccccc2)nnc1-c1ccc(NC(=O)C2CC2)cc1N1CCCCCC1` [Example 112, N-[3-(azepan-1-yl)-4-(4-methyl-5-phenyl-1,2,4-triazol-3-yl)phenyl]cyclopropanecarboxamide] it was 316 to 1000 nM; in that of `CN1CCN(C(=O)c2ccc(NC(=O)C3CC3)cc2N2CC3(CCOC3)C2)C(c2ccccc2)C1` (stereo not shown) [Example 205, N-[4-(4-methyl-2-phenylpiperazine-1-carbonyl)-3-(6-oxa-2-azaspiro[3.4]octan-2-yl)phenyl]cyclopropanecarboxamide], 63.1 to 251 nM; in that of `CN1CCN(C(=O)c2ccc(NC(=O)C3CC3)cc2N2CCCC2)C(c2cnn(C)c2)C1` (racemic) [Example 87, N-[4-[4-methyl-2-(1-methylpyrazol-4-yl)piperazine-1-carbonyl]-3-pyrrolidin-1-ylphenyl]Cyclopropanecarboxamide], 316 to 1000 nM. As to `CCCN1CCN(C(=O)c2ccc(NC(=O)C3CC3)nc2N2CCCCCC2)CC1` [Example 108], the Ki fell in the range of 63.1 to 251 nM. On to `CN1CCN(C(=O)c2ccc(NC(=O)C3CC3)cc2N2CCC(C(F)(F)F)C2)C(c2ccccc2)C1` (single isomer, unassigned) [Example 199c, (2S, 3R) or (2R, 3S) or (2R, 3R) or (2S, 3S) N-[4-(4-methyl-2-phenylpiperazine-1-carbonyl)-3-[3-(trifluoromethyl)pyrrolidin-1-yl]phenyl]cyclopropanecarboxamide], for which the Ki was 63.1 to 251 nM. Still for that read-out and setting: in the case of `O=C(Nc1ccc(C(=O)N2CCOC(C(F)(F)F)C2)c(N2CCCC2)c1)C1CC1` (stereo not shown) [Example 166, N-[3-pyrrolidin-1-yl-4-[2-(trifluoromethyl)morpholine-4-carbonyl]phenyl]cyclopropanecarboxamide] it was 1260 to 6310 nM. Still for that read-out and setting: in the case of `Cc1nnc(-c2ccc(C(=O)N3CCC4(CC3)CC4)c(-n3ccc(C(F)(F)F)n3)c2)[nH]1` [Example 214, 6-azaspiro[2.5]octan-6-yl-[4-(5-methyl-4H-1,2,4-triazol-3-yl)-2-[3-(trifluoromethyl)pyrazol-1-yl]phenyl]methanone] it was at most 50.1 nM; in that of `C[C@@H]1C[C@@H](C)CN(c2cc(NC(=O)C3CC3)ccc2-c2ncc3n2CCN(C)C3)C1` (relative stereo) [Example 104a, N-[3-(3,5-dimethylpiperidin-1-yl)-4-(7-methyl-6,8-dihydro-5H-imidazo[1,5-a]pyrazin-3-yl)phenyl] cyclopropanecarboxamide], 316 to 1000 nM; in that of `CN1CCN(C(=O)c2ccc(NC(=O)C3CC3)cc2N2CCC3(CCC3)C2)C(c2ccccc2)C1` (single isomer, unassigned) [Example 66b, N-[3-(6-azaspiro[3.4]octan-6-yl)-4-(4-methyl-2-phenylpiperazine-1-carbonyl)phenyl]cyclopropanecarboxamide], 316 to 1000 nM. On to `O=C(Nc1ccc(C(=O)N2CCS(=O)(=O)CC2)c(N2CCCC3(CC3)C2)c1)C1CC1` [Example 189, N-[3-(5-azaspiro[2.5]octan-5-yl)-4-(1,1-dioxo-1,4-thiazinane-4-carbonyl)phenyl]cyclopropanecarboxamide], for which the Ki was in the range of 63.1 to 251 nM. With `CN1CCN(C(=O)c2ccc(NC(=O)C3CC3)cc2N2CCCC2)C(c2ccccc2F)C1` (single isomer, unassigned) [Example 84b, N-[4-[2-(2-fluorophenyl)-4-methylpiperazine-1-carbonyl]-3-pyrrolidin-1-ylphenyl]cyclopropanecarboxamide], the Ki was 1260 to 6310 nM. Still for that read-out and setting: in the case of `Cn1c(Sc2ccccn2)nnc1-c1ccc(NC(=O)C2CC2)cc1N1CCCC1` [Example 116, N-[4-(4-methyl-5-pyridin-2-ylsulfanyl-1,2,4-triazol-3-yl)-3-pyrrolidin-1-ylphenyl]cyclopropanecarboxamide] it was 1260 to 6310 nM; in that of `Cc1ccn(-c2cc(NC(=O)C3CC3)ccc2C(=O)N2CCN(C)CC2c2ccccc2)n1` (single isomer, unassigned) [Example 155a, (2R or 2S) N-[4-(4-methyl-2-phenylpiperazine-1-carbonyl)-3-(3-methylpyrazol-1-yl)phenyl] cyclopropanecarboxamide], 316 to 1000 nM; in that of `CN1CCN(C(=O)c2ccc(NC(=O)C3CC3)cc2N2CCCC2)C(c2ccccc2)C1` (racemic) [Example 62c, N-[4-(4-methyl-2-phenylpiperazine-1-carbonyl)-3-pyrrolidin-1-ylphenyl]Cyclopropanecarboxamide], 63.1 to 251 nM. As for `CCCN1CCN(C(=O)c2ccc(NC(=O)C3CC3)cc2N2CCCOCC2)CC1` [Example 3, N-[3-(1,4-oxazepan-4-yl)-4-(4-propylpiperazine-1-carbonyl)phenyl]cyclopropanecarboxamide], the Ki is 316 to 1000 nM. Still for that read-out and setting: in the case of `CN1CCN(C(=O)c2ccc(NC(=O)C3CC3)cc2N2CCCC2)C(c2ccccc2)C1` (single isomer, unassigned) [Example 62a, (2R or 2S) n-[4-(4-methyl-2-phenylpiperazine-1-carbonyl)-3-pyrrolidin-1-ylphenyl] Cyclopropanecarboxamide] it was at most 50.1 nM; in that of `CCCN1CCN(C(=O)c2ccc(NC(=O)C3CC3)cc2N2CC[C@@H](C(C)C)C2)CC1` [Example 2, (S)-N-(3-(3-isopropylpyrrolidin-1-yl)-4-(4-propylpiperazine-1-carbonyl)phenyl)cyclopropanecarboxamide], at most 50.1 nM; in that of `O=C(Nc1ccc(C(=O)N2CCC3(CC2)COC3)c(N2CCC(C(F)(F)F)C2)c1)C1CC1` (racemic) [Example 213c, N-[4-(2-oxa-7-azaspiro[3.5]nonane-7-carbonyl)-3-[3-(trifluoromethyl)pyrrolidin-1-yl]phenyl]cyclopropanecarboxamide], 63.1 to 251 nM.

Turning to `CN1CCN(C(=O)c2ccc(NC(=O)C3CC3)cc2N2CCCC2)C(c2ccccc2F)C1` (racemic) [Example 84c, N-[4-[2-(2-fluorophenyl)-4-methylpiperazine-1-carbonyl]-3-pyrrolidin-1-ylphenyl]cyclopropanecarboxamide], the Ki was in the range of 63.1 to 251 nM.

On to `O=C(Nc1ccc(C(=O)N2CCC3(CC2)CC3)c(N2CCCC2)c1)C1CC1` [Example 220, N-[4-(6-azaspiro[2.5]octane-6-carbonyl)-3-pyrrolidin-1-ylphenyl]cyclopropanecarboxamide], for which the Ki lay in the range of 63.1 to 251 nM. Regarding `CCCN1CCN(C(=O)c2ccc(Nc3nnc(C4CC4)[nH]3)cc2N2CCCCCC2)CC1` [Example 98], the Ki lay within 1260 to 6310 nM.

The values above are taken from patent US20230174484A1, “ANTAGONISTS OF GPR39 PROTEIN” (Oregon Health & Science University, priority 2020, published 2023).
